The values that follow come from patent US20260109707A1, “HETEROBIFUNCTIONAL COMPOUNDS AND METHODS OF TREATING DISEASE” (Halda Therapeutics OpCo. Inc., priority 2022, published 2026).

The subject of test [1] is T-Rex 293 cell line SC3 cells lacking increased expression of androgen receptor protein. The test can be described thus: Cellular growth inhibition assay, T-Rex 293 SC3 cells without doxycycline (CellTiter-Glo, 72 hours). The test is classed as cell-based. To be noted: T-Rex 293 cell line SC3 cells not exposed to doxycycline (lacking increased androgen receptor expression). Here is the method:
(§1) The following types of cells were prepared for this experiment: (i) a T-Rex 293 cell line having increased expression of androgen receptor protein due to exposure to doxycycline and (ii) a T-Rex 293 cell line lacking increased expression of androgen receptor protein. Ability of the test compounds to inhibit proliferation of the foregoing cell types was evaluated according to the procedures set forth below.
(§2) The doxycycline-inducible androgen receptor protein expressing cell line was established using the following protocol: T-Rex 293 cells were purchased from Invitrogen (Cat #R71007) and transfected using Lipofectamine 2000 with the wild-type androgen receptor protein sequence cloned into the pcDNA4/TO vector. Transfected cells were selected using 400 μg/mL Zeocin (Invitrogen Cat #R25001). Following selection, single clones were raised and maintained in Dulbecco's Modified Eagle Medium (DMEM) supplemented with 10% w/w Tetracycline-free fetal bovine serum (FBS) and 250 μg/mL Zeocin. Clones were analyzed for expression of androgen receptor protein in the presence and absence of 10 ng/mL doxycycline (Sigma Cat #D9891), and a single doxycycline-inducible clone (hereinafter “SC3”) was selected for use in downstream assays.
(§3) The SC3 cells were seeded on poly-D-lysine coated, black clear-bottom 384-well plates at 2500/well, in 25 μL Phenol Red Free Dulbecco's Modified Eagle Medium (DMEM) supplemented with 10% w/w charcoal-dextran treated fetal bovine serum (FBS) and 1% w/w pen-strep, with or without 10 ng/mL doxycycline. Pen-Strep is a commercially available mixture of penicillin G and streptomycin, which is used in mammalian cell culture media to prevent bacterial contamination. Phenol Red Free Dulbecco's Modified Eagle Medium (DMEM) supplemented with 10% w/w charcoal-dextran treated fetal bovine serum (FBS) and 1% w/w pen-strep, with or without 10 ng/mL doxycycline is herein referred to as Treatment Medium. Following seeding of cells in the plates, the plates were spun at 300×g for 30 seconds, then equilibrated to room temperature for 30 minutes, and then deposited in a humidified tissue culture incubator maintained at 37° C. with 5% CO2.
(§4) At 24 hours after seeding of the cells, dilutions of test compound were prepared in DMSO and dissolved in Treatment Medium, to achieve a final DMSO concentration of 0.5% w/w, thereby providing the Test Compound Solution. A 25 μL aliquot of the Test Compound Solution was added to cells in the well plates. An equal volume of a solution containing DMSO and Treatment Medium was used as a negative control. Following treatment of cells with Test Compound Solution or said equal volume of a solution containing DMSO and Treatment Medium, the plates were spun at 300×g for 30 seconds, and then left in an incubator for 72 hours.
(§5) At the end of the treatment duration, cell viability was quantified with CellTiter-Glo 2.0 reagent (Promega Cat #G9243). For this purpose, plates were equilibrated to room temperature for 30 minutes, and then 25 μL of CellTiter-Glo 2.0 reagent was added to cells in the plate wells. Plates were then agitated on a shaker for two minutes at 500 rpm and subsequently incubated at room temperature for 10 minutes. Following incubation, the plates were spun at 3000×g for 30 seconds, then sealed with an optical adhesive cover, and luminescence readings were measured with an EnVision Plate Reader.
(§6) Data was normalized using zero luminescence for baseline. A four-parameter non-linear regression curve fit was applied to dose-response data in GraphPad Prism data analysis software to determine the half-maximal growth inhibitory concentration (GI50) for each test compound.
Background: In ATP-based viability assays light output follows the ATP content of the culture.

Test [2] relates to T-Rex 293 cell line SC3 cells having increased expression of androgen receptor protein due to exposure to doxycycline. The test can be described thus: Cellular growth inhibition assay, T-Rex 293 SC3 cells with doxycycline (CellTiter-Glo, 72 hours). The test is classed as cell-based. The note with it: T-Rex 293 SC3 cells with increased androgen receptor expression due to doxycycline (10 ng/mL). How it is done: as §1, §2, §3, §4, §5, §6

Another test concerns VCaP cells. The experiment in a line: Cellular growth inhibition assay for VCaP cells (CellTiter-Glo, 72 hours). The test is classed as cell-based, human. How it is done: VCaP cells were purchased from American Type Cell Culture (ATCC Cat #CRL2876) and then seeded on poly-D-lysine coated, black clear-bottom 384-well plates at 5000/well in 25 μL Dulbecco's Modified Eagle Medium (DMEM) supplemented with 10% w/w Fetal bovine serum (FBS) and 1% w/w Pen-Strep. Pen-Strep is a commercially available mixture of penicillin G and streptomycin, which is used in mammalian cell culture media to prevent bacterial contamination. Dulbecco's Modified Eagle Medium (DMEM) supplemented with 10% w/w fetal bovine serum (FBS) and 1% w/w Pen-Strep is herein referred to as Treatment Medium. Following seeding of cells in the plates, the plates were spun at 300×g for 30 seconds, then equilibrated to room temperature for 30 minutes, and then deposited in a humidified tissue culture incubator maintained at 37° C. with 5% C0-2.
as §4, §5, §6

Like-named read-outs stand apart in the source and are kept apart here.

For the compound `Cc1sc2c(c1C)C(c1ccc(C3CCC4(CC3)CCN(c3ccc(C(=O)N[C@H]5CC[C@H](Oc6ccc(C#N)c(Cl)c6)CC5)nn3)C4)cc1)=NC(C(F)(F)F)c1nnc(C)n1-2` (mixture of isomers) [I-742], the figures for the GI50 (in test [1]; in test [2]; with VCaP cells) were more than 3000 nM, more than 3000 nM and less than 500 nM, respectively.
For `Cc1sc2c(c1C)C(c1ccc(NCC3CCN(c4ncc(C(=O)N[C@H]5CC[C@H](Oc6ccc(C#N)c(Cl)c6)CC5)cn4)C3)cc1)=NC(Cc1ncco1)c1nnc(C)n1-2` (mixture of isomers) [I-788], the GI50 (in test [1]; in test [2]; with VCaP cells) was less than 500 nM in each case.
As to `Cc1sc2c(c1C)C(c1ccc(C#CC3CC4(C3)CN(c3ccc(C(=O)N[C@H]5CC[C@H](Oc6ccc(C#N)c(Cl)c6)CC5)nn3)C4)cc1F)=NC(Cc1ncco1)c1nnc(C)n1-2` (mixture of isomers) [I-828, N-[4-(3-chloro-4-cyano-phenoxy)cyclohexyl]-6-[6-[2-[3-fluoro-4-[4,5,13-trimethyl-9-(oxazol-2-ylmethyl)-3-thia-1,8,11,12-tetrazatricyclo[8.3.0.02,6]trideca-2(6),4,7,10,12-pentaen-7-yl]phenyl]ethynyl]-2-azaspiro[3.3]heptan-2-yl]pyridazine-3-carboxamide], the GI50 was less than 500 nM in test [1] (72 h); less than 500 nM in test [2] (72 h); less than 500 nM with VCaP cells (Homo sapiens, VCaP, 72 h).
On to `COCC[C@@H]1N=C(c2ccc(C3CCC4(CC3)CCN(c3ccc(C(=O)N[C@H]5CC[C@H](Oc6ccc(C#N)c(Cl)c6)CC5)nn3)C4)cc2)c2c(sc(C)c2C)-n2c(C)nnc21` (single isomer, unassigned) [I-618], for which the GI50 (in test [1]; in test [2]; in the test on VCaP cells) was less than 500 nM each time.
On to `COCC[C@@H]1N=C(c2ccc(C3CCC4(CC3)CCN(c3ccc(C(=O)N[C@H]5CC[C@H](Oc6ccc(C#N)c(Cl)c6)CC5)nn3)C4)cc2)c2c(sc(C)c2C)-n2c(C)nnc21` (single isomer, unassigned) [I-619], for which the GI50 in test [1] was more than 3000 nM; in test [2] it was less than 500 nM; in the test on VCaP cells it was less than 500 nM.
For the compound `CC[C@@H]1N=C(c2ccc(C3CCC4(CC3)CCN(c3ccc(C(=O)N[C@H]5CC[C@H](Oc6ccc(C#N)c(Cl)c6)CC5)nn3)C4)cc2)c2c(sc(C)c2C)-n2c(C)nnc21` (single isomer, unassigned) [I-633], the GI50 in test [1] is less than 500 nM; in test [2], less than 500 nM; with VCaP cells, 1500 to 3000 nM.
`CC[C@@H]1N=C(c2ccc(C3CCC4(CC3)CCN(c3ccc(C(=O)N[C@H]5CC[C@H](Oc6ccc(C#N)c(Cl)c6)CC5)nn3)C4)cc2)c2c(sc(C)c2C)-n2c(C)nnc21` (single isomer, unassigned) [I-634]: the GI50 in test [1] is 500 to 1500 nM; in test [2] it was less than 500 nM; in the test on VCaP cells it was less than 500 nM.
For the compound `Cc1sc2c(c1C)C(c1ccc(N3CCC4(CC3)CCN(c3ccc(C(=O)N[C@H]5CC[C@H](Oc6ccc(C#N)c(Cl)c6)CC5)nn3)C4)cc1)=NC(C(F)(F)F)c1nnc(C)n1-2` (single isomer, unassigned) [I-719], the 50% growth inhibitory concentration (GI50) in test [1] was more than 3000 nM; in test [2], less than 500 nM; in the test with VCaP cells, less than 500 nM.
`Cc1sc2c(c1C)C(c1ccc(N3CCC4(CC3)CCN(c3ccc(C(=O)N[C@H]5CC[C@H](Oc6ccc(C#N)c(Cl)c6)CC5)nn3)C4)cc1)=NC(C(F)(F)F)c1nnc(C)n1-2` (single isomer, unassigned) [I-720]: the GI50 (in test [1]; in test [2]; in the test on VCaP cells) was more than 3000 nM each time.
As to `Cc1sc2c(c1C)C(c1ccc(N3CCOC4(CCN(c5ccc(C(=O)N[C@H]6CC[C@H](Oc7ccc(C#N)c(Cl)c7)CC6)nn5)C4)C3)cc1)=N[C@@H](C)c1nnc(C)n1-2` (single isomer, unassigned) [I-827], the GI50 in test [1] (72 h) was less than 500 nM; in test [2] (72 h) it was less than 500 nM; in the test with VCaP cells (Homo sapiens, VCaP, 72 h), less than 500 nM.
On to `Cc1sc2c(c1C)C(c1ccc(Cl)cc1)=N[C@@H](CC(=O)NCCOCCOCCOCCOCCOCCOCCOC1CCN(c3ccc(C(=O)N[C@H]4CC[C@H](Oc5ccc(C#N)c(Cl)c5)CC4)nn3)CC1)c1nnc(C)n1-2` [I-4, N-[4-(3-chloro-4-cyano-phenoxy)cyclohexyl]-6-[14-[2-[2-[2-[2-[2-[2-[2-[[2-[(9S)-7-(4-chlorophenyl)-4,5,13-trimethyl-3-thia-1,8,11,12-tetrazatricyclo[8.3.0.2,6]trideca-2(6),4,7,10,12-pentaen-9-yl]acetyl]amino]ethoxy]ethoxy]ethoxy]ethoxy]ethoxy]ethoxy]ethoxy]-1-piperidyl]pyridazine-3-carboxamide], for which the GI50 in test [1] (72 h) was more than 3000 nM; in test [2] (72 h) it was 500 to 1500 nM; in the test with VCaP cells (Homo sapiens, VCaP, 72 h), less than 500 nM.
As to `Cc1sc2c(c1C)C(c1ccc(Cl)cc1)=N[C@@H](CC(=O)NCCCCCOC1CCN(c3ccc(C(=O)N[C@H]4CC[C@H](Oc5ccc(C#N)c(Cl)c5)CC4)nn3)CC1)c1nnc(C)n1-2` [I-5], the GI50 is less than 500 nM in test [1] (72 h); less than 500 nM in test [2] (72 h); less than 500 nM in the test with VCaP cells (Homo sapiens, VCaP, 72 h).
For the compound `CCNC(=O)C[C@@H]1N=C(c2cccc(OCCOCCOCCOC3CCN(c4ncc(C(=O)N[C@H]5CC[C@H](Oc6ccc(C#N)c(Cl)c6)CC5)cn4)CC3)c2)c2c(sc(C)c2C)-n2c(C)nnc21` [I-11], the GI50 in test [1] (72 h) was more than 3000 nM; in test [2] (72 h) it was less than 500 nM; in the test with VCaP cells (Homo sapiens, VCaP, 72 h), 500 to 1500 nM.
Consider `Cc1sc2c(c1C)C(c1ccc(C#CC3CC4(CCCN(c5ccc(C(=O)N[C@H]6CC[C@H](Oc7ccc(C#N)c(Cl)c7)CC6)nn5)C4)C3)cc1)=NC1(CC1)c1nnc(C)n1-2` (stereo partly shown) [I-445], for which the GI50 in test [1] (72 h) is more than 3000 nM; with VCaP cells (Homo sapiens, VCaP, 72 h) it was less than 500 nM.
On to `Cc1sc2c(c1C)C(c1ccc(N3CCC4(CCN(c5ccc(C(=O)N[C@H]6CC[C@H](Oc7ccc(C#N)c(Cl)c7)CC6)nn5)C4)C3)cc1)=N[C@@H](C)c1nnc(C)n1-2` (stereo partly shown) [I-512], for which the GI50 in test [1] (72 h) is less than 500 nM; with VCaP cells (Homo sapiens, VCaP, 72 h) it was less than 500 nM.
`Cc1sc2c(c1C)C(c1ccc(CC3CC(OC4CCN(c5ccc(C(=O)NC6CCC(Oc7ccc(C#N)c(Cl)c7)CC6)nn5)CC4)C3)cc1)=NC(C)c1nnc(C)n1-2` (stereo not shown) [I-588]: the GI50 in the test with VCaP cells (Homo sapiens, VCaP, 72 h) is less than 500 nM.
With `COC[C@@H]1N=C(c2ccc(C3CCC4(CC3)CCN(c3ccc(C(=O)N[C@H]5CC[C@H](Oc6ccc(C#N)c(Cl)c6)CC5)nn3)C4)cc2)c2c(sc(C)c2C)-n2c(C)nnc21` (stereo partly shown) [I-601], the GI50 in test [2] (72 h) was less than 500 nM; in the test on VCaP cells (Homo sapiens, VCaP, 72 h), less than 500 nM.
For `Cc1sc2c(c1C)C(c1ccc(N3C[C@@H]4CN(c5ccc(C(=O)N[C@H]6CC[C@H](Oc7ccc(C#N)c(Cl)c7)CC6)nn5)C[C@H]4C3)cc1)=N[C@@H](C)c1nnc(C)n1-2` [I-677], the GI50 in test [2] (72 h) is less than 500 nM; in the test with VCaP cells (Homo sapiens, VCaP, 72 h), less than 500 nM.
As to `COC[C@@H]1N=C(c2ccc(OC3CC4(CCCN(c5ccc(C(=O)N[C@H]6CC[C@H](Oc7ccc(C#N)c(Cl)c7)CC6)nn5)C4)C3)cc2)c2c(sc(C)c2C)-n2c(C)nnc21` (stereo partly shown) [I-693], the GI50 is less than 500 nM in test [1] (72 h) and less than 500 nM with VCaP cells (Homo sapiens, VCaP, 72 h).
In the case of `Cc1sc2c(c1C)C(c1ccc(N3CCN(c4ncc(C(=O)N[C@H]5CC[C@H](Oc6ccc(C#N)c(Cl)c6)CC5)cn4)CC(F)(F)C3)cc1)=NC(Cc1ncco1)c1nnc(C)n1-2` (stereo partly shown) [I-820], the GI50 in test [1] (72 h) and in test [2] (72 h) was less than 500 nM each time.

By GI50 is commonly meant the concentration that inhibits growth by half. The low end stands for greater sensitivity of the cells, the high end for lower sensitivity of the cells.
